Measured values published in patent US9192638B2, “Preparation comprising amino acids and plants and its activity in the alcohol detoxification” (Modutech S.A., priority 2009, dated 2015).

System: Mice
Assay: Acute cerebral ischemia hypoxia survival time of mice, different formulations (Example 1)
Format: in vivo
Conditions: 800 mg/kg per day oral, 7 days, sacrificed 1 h after last dosing
Protocol: The acute cerebral ischemia hypoxia survival time of the mice through different formulations is provided.
Dosage: 800 mg/kg per day per group. The test sample is prepared by redistilled water and drenched into the stomach through the mouth for seven days continuously.
Testing Method: The mice are respectively sacrificed one hour after the last stomach drenching, and the time from the sacrifice of the mice to the time when they stop gasping through mouths is recorded with a second counter.

NC(=O)NCCC[C@H](N)C(=O)O [Sample 1, Citrulline]
Gasp Stopping Time: 12.6 s
